Measurements reported in patent US20020137929A1, “1 - (3-heterocyclylphenyl) isothiourea, -isourea, -guanidine and -amidine herbicidal agents” (Intellectual Property Department, BASF Aktiengesellschaft, priority 1998, published 2002).

Legend:
[1] = tested on: IPOHE (Morningglory, Ivyleaf); assay: Postemergence herbicidal evaluation; type: in vivo, Ipomoea hederacea; conditions: postemergence
Procedure, shortened: (§1)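 Visual 0–9 rating versus control (stand, vigor, malformation, size, chlorosis, overall appearance), taken four to five weeks post-spray. Two-week-old seedlings received roughly 0.0156–0.500 kg/ha active in acetone/water (50/50) with 0.5% TWEEN 20 via nozzle at 40 psi.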

AMBEL (Ragweed, Common) [2] = assay: Preemergence herbicidal evaluation; type: in vivo, Ambrosia artemisifolia; conditions: preemergence, rated 4-5 weeks after treatment, 0-9 scale
Procedure, shortened: (§2)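 Scores use a 0–9 visual scale covering stand, vigor, malformation, size and chlorosis relative to controls, rated four to five weeks after treatment. Before emergence, soil-planted seeds were sprayed with compound in aqueous acetone at roughly 0.0156–0.500 kg/ha and held in the greenhouse.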

[3] = tested on: CHEAL (Lambsquarters, Common); assay: Postemergence herbicidal evaluation; type: in vivo, Chenopodium album; conditions: postemergence
Procedure, shortened: as §1

CASOB (Sicklepod) [4] = assay: Preemergence herbicidal evaluation; type: in vivo, Cassia obtusifolia; conditions: preemergence, rated 4-5 weeks after treatment, 0-9 scale
Procedure, shortened: as §2

[5] = tested on: GLXMAW (Soybean, Williams); assay: Preemergence herbicidal evaluation; type: in vivo, Glycine max, (L.) Merr. cv Williams; conditions: preemergence, rated 4-5 weeks after treatment, 0-9 scale
Procedure, shortened: as §2

[6] = tested on: TRZAWR (Wheat, Winter, cv Riband); assay: Postemergence herbicidal evaluation; type: in vivo, Triticum aestivum; conditions: postemergence
Procedure, shortened: as §1

[7] = tested on: CHEAL (Lambsquarters, Common); assay: Preemergence herbicidal evaluation; type: in vivo, Chenopodium album; conditions: preemergence, rated 4-5 weeks after treatment, 0-9 scale
Procedure, shortened: as §2

MOOVA (Monochoria) = assay: Preemergence weed control under flooded paddy conditions; type: in vivo, Monochoria vaginalis; conditions: rated 3-4 weeks after treatment
Procedure, shortened: (§3)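 Herbicidal effect is scored visually on a 0-9 scale against an untreated control, three to four weeks after compounds are pipetted into the flood water (1.5 to 3 cm deep) over seeds planted in silt loam at 0.5 cm depth. Rates: about 0.0313 to 0.500 kg/ha.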

ECHCG (Barnyardgrass) = assay: Postemergence herbicidal evaluation; type: in vivo, Echinochloa crus-galli; conditions: postemergence
Procedure, shortened: as §1

CASOB (Sicklepod) [8] = assay: Postemergence herbicidal evaluation; type: in vivo, Cassia obtusifolia; conditions: postemergence
Procedure, shortened: as §1

ORYSAT (Rice, Tebonnet) = assay: Preemergence herbicidal evaluation; type: in vivo, Oryza sativa, (L.) Tebonnet; conditions: preemergence, rated 4-5 weeks after treatment, 0-9 scale
Procedure, shortened: as §2

[9] = tested on: SAGPY (Arrowhead (Pygmaea)); assay: Preemergence weed control under flooded paddy conditions; type: in vivo, Sagittaria pygmaea; conditions: rated 3-4 weeks after treatment
Procedure, shortened: as §3

AMBEL (Ragweed, Common) [10] = assay: Postemergence herbicidal evaluation; type: in vivo, Ambrosia artemisifolia; conditions: postemergence
Procedure, shortened: as §1

ABUTH (Velvetleaf) = assay: Preemergence herbicidal evaluation; type: in vivo, Abutilon theophrasti; conditions: preemergence, rated 4-5 weeks after treatment, 0-9 scale
Procedure, shortened: as §2

[11] = tested on: IPOHE (Morningglory, Ivyleaf); assay: Preemergence herbicidal evaluation; type: in vivo, Ipomoea hederacea; conditions: preemergence, rated 4-5 weeks after treatment, 0-9 scale
Procedure, shortened: as §2

[12] = tested on: GLXMAW (Soybean, Williams); assay: Postemergence herbicidal evaluation; type: in vivo, Glycine max, (L.) Merr. cv Williams; conditions: postemergence
Procedure, shortened: as §1

COC(=O)CC1SC(=Nc2cc(-n3c(=O)cc(C(F)(F)F)n(C)c3=O)c(F)cc2Cl)N(C)C1=O (stereo not shown) [Compound 88, Methyl 2-{{2-chloro-5-[3,6-dihydro-3-methyl-2,6-dioxo-4-(trifluoromethyl)-1(2H)-pyrimidinyl]-4-fluorophenyl}imino}-3-methyl-4-oxo-5-thiazolidineacetate]
1.0: ECHCG herbicidal rating (ECHCG (Barnyardgrass); rate 0.0158 kg/ha)
9.0: IPOHE herbicidal rating ([1]; rate 0.0158 kg/ha) | IPOHE herbicidal rating ([1]; rate 0.0315 kg/ha) | IPOHE herbicidal rating ([1]; rate 0.0630 kg/ha) | AMBEL rating (AMBEL (Ragweed, Common) [2]; 0.1250 kg/ha) | AMBEL rating (AMBEL (Ragweed, Common) [2]; 0.2500 kg/ha) | CHEAL herbicidal rating ([3]; rate 0.0158 kg/ha) | CHEAL herbicidal rating ([3]; rate 0.0315 kg/ha) | CHEAL herbicidal rating ([3]; rate 0.0630 kg/ha) | CASOB rating (CASOB (Sicklepod) [4]; 0.2500 kg/ha) | GLXMAW rating ([5]; 0.2500 kg/ha) | CHEAL rating ([7]; 0.0313 kg/ha) | CHEAL rating ([7]; 0.0625 kg/ha) | CHEAL rating ([7]; 0.1250 kg/ha) | CHEAL rating ([7]; 0.2500 kg/ha) | MOOVA herbicidal effect rating (MOOVA (Monochoria); 0.0313 kg/ha) | MOOVA herbicidal effect rating (MOOVA (Monochoria); 0.0625 kg/ha) | MOOVA herbicidal effect rating (MOOVA (Monochoria); 0.1250 kg/ha) | MOOVA herbicidal effect rating (MOOVA (Monochoria); 0.2500 kg/ha) | SAGPY herbicidal effect rating ([9]; 0.0625 kg/ha) | SAGPY herbicidal effect rating ([9]; 0.1250 kg/ha) | SAGPY herbicidal effect rating ([9]; 0.2500 kg/ha) | AMBEL herbicidal rating (AMBEL (Ragweed, Common) [10]; rate 0.0158 kg/ha) | AMBEL herbicidal rating (AMBEL (Ragweed, Common) [10]; rate 0.0315 kg/ha) | AMBEL herbicidal rating (AMBEL (Ragweed, Common) [10]; rate 0.0630 kg/ha) | ABUTH rating (ABUTH (Velvetleaf); 0.0156 kg/ha) | ABUTH rating (ABUTH (Velvetleaf); 0.0313 kg/ha) | ABUTH rating (ABUTH (Velvetleaf); 0.0625 kg/ha) | ABUTH rating (ABUTH (Velvetleaf); 0.1250 kg/ha) | ABUTH rating (ABUTH (Velvetleaf); 0.2500 kg/ha) | IPOHE rating ([11]; 0.1250 kg/ha) | IPOHE rating ([11]; 0.2500 kg/ha) | GLXMAW herbicidal rating ([12]; rate 0.0630 kg/ha)
6.0: SAGPY herbicidal effect rating ([9]; 0.0313 kg/ha)
4.0: GLXMAW rating ([5]; 0.1250 kg/ha)
0.0: AMBEL rating (AMBEL (Ragweed, Common) [2]; 0.0156 kg/ha) | AMBEL rating (AMBEL (Ragweed, Common) [2]; 0.0313 kg/ha) | CASOB rating (CASOB (Sicklepod) [4]; 0.0156 kg/ha) | CASOB rating (CASOB (Sicklepod) [4]; 0.0313 kg/ha) | CASOB rating (CASOB (Sicklepod) [4]; 0.0625 kg/ha) | GLXMAW rating ([5]; 0.0156 kg/ha) | GLXMAW rating ([5]; 0.0313 kg/ha) | GLXMAW rating ([5]; 0.0625 kg/ha) | CASOB herbicidal rating (CASOB (Sicklepod) [8]; rate 0.0158 kg/ha) | ORYSAT rating (ORYSAT (Rice, Tebonnet); 0.0156 kg/ha) | ORYSAT rating (ORYSAT (Rice, Tebonnet); 0.0313 kg/ha) | ORYSAT rating (ORYSAT (Rice, Tebonnet); 0.0625 kg/ha) | IPOHE rating ([11]; 0.0156 kg/ha) | IPOHE rating ([11]; 0.0313 kg/ha) | IPOHE rating ([11]; 0.0625 kg/ha)
5.5: TRZAWR herbicidal rating ([6]; rate 0.0158 kg/ha)
3.0: CASOB rating (CASOB (Sicklepod) [4]; 0.1250 kg/ha) | CASOB herbicidal rating (CASOB (Sicklepod) [8]; rate 0.0315 kg/ha) | CASOB herbicidal rating (CASOB (Sicklepod) [8]; rate 0.0630 kg/ha)
7.5: TRZAWR herbicidal rating ([6]; rate 0.0630 kg/ha)
7.0: AMBEL rating (AMBEL (Ragweed, Common) [2]; 0.0625 kg/ha) | TRZAWR herbicidal rating ([6]; rate 0.0315 kg/ha) | CHEAL rating ([7]; 0.0156 kg/ha) | ECHCG herbicidal rating (ECHCG (Barnyardgrass); rate 0.0315 kg/ha) | ECHCG herbicidal rating (ECHCG (Barnyardgrass); rate 0.0630 kg/ha) | ORYSAT rating (ORYSAT (Rice, Tebonnet); 0.2500 kg/ha)
2.0: ORYSAT rating (ORYSAT (Rice, Tebonnet); 0.1250 kg/ha)
8.5: GLXMAW herbicidal rating ([12]; rate 0.0158 kg/ha) | GLXMAW herbicidal rating ([12]; rate 0.0315 kg/ha)
